The record followed here is patent publication US10689340B2, “Substituted indoline derivatives as dengue viral replication inhibitors” (priority 2016, dated 2020).

Some results are limits rather than exact numbers.

One data set relates to DENV-2 16681 strain. The data set is described as follows: DENV-2 antiviral assay (eGFP fluorescence). Conditions: DENV-2 16681 eGFP, Vero cells, MOI 0.5, 3 days. The data set is classed as cell-based, Dengue virus. On the procedure:
The antiviral activity of all the compounds of the invention was tested against the DENV-2 16681 strain which was labeled with enhanced green fluorescent protein (eGPF). The culture medium consists of minimal essential medium supplemented with 2% of heat-inactivated fetal calf serum, 0.04% gentamycin (50 mg/mL) and 2 mM of L-glutamine. Vero cells, obtained from ECACC, were suspended in culture medium and 25 μL was added to 384-well plates (2500 cells/well), which already contain the antiviral compounds. Typically, these plates contain a 5-fold serial dilution of 9 dilution steps of the test compound at 200 times the final concentration in 100% DMSO (200 nL). […] Finally, each plate contains wells which are assigned as virus controls (containing cells and virus in the absence of compound), cell controls (containing cells in the absence of virus and compound) and medium controls (containing medium in the absence of cells, virus and compounds). To the wells assigned as medium control, 25 μL of culture medium was added instead of Vero cells. Once the cells were added to the plates, the plates were incubated for 30 minutes at room temperature to allow the cells to distribute evenly within the wells. Next, the plates were incubated in a fully humidified incubator (37° C., 5% CO2) until the next day. Then, DENV-2 strain 16681, labeled with eGFP, was added at a multiplicity of infection (MOI) of 0.5. Therefore, 15 μL of virus suspension was added to all the wells containing test compound and to the wells assigned as virus control. In parallel, 15 μL of culture medium was added to the medium and cell controls. Next, the plates were incubated for 3 days in a fully humidified incubator (37° C., 5% CO2). At the day of the read out, the eGFP fluorescence was measured using an automated fluorescence microscope at 488 nm (blue laser). Using an in-house LIMS system, inhibition dose response curves for each compound were calculated and the half maximal effective concentration (EC50) was determined. Therefore, the percent inhibition (I) for every test concentration is calculated using the following formula: I=100*(ST-SCC)/(SVC-SCC); ST, SCC and SVC are the amount of eGFP signal in the test compound, cell control and virus control wells, respectively. The EC50, represents the concentration of a compound at which the virus replication is inhibited with 50%, as measured by a 50% reduction of the eGFP fluorescent intensity compared to the virus control. The EC50 is calculated using linear interpolation (Table 1).

The next data set in a line: in vitro. To be noted: African green monkey.
The mark [1] stands for this setting: Dengue virus, DENV2, Vero, 72 h.

One may read the EC50 as the concentration giving half of the maximal effect. In the case of `COc1cc(NC(C(=O)N2CCc3ccc(C(F)(F)F)cc32)c2ccc(Cl)cc2OC)cc(OCCCC(=O)O)c1` (racemic) [Compound 6, 4-(3-((1-(4-chloro-2-methoxyphenyl)-2-oxo-2-(6-(trifluoro-methyl)indolin-1-yl)ethyl)amino)-5-methoxyphenoxy)butanoic acid], in the data set with DENV-2 16681 strain (setting [1]), the response was half-maximal at 0.31 nM (EC50). In the data set “in vitro”, the CC50 is 12000 nM.
`COc1cc(NC(C(=O)N2CCc3ccc(OC(F)(F)F)cc32)c2ccc(Cl)cc2OC)cc(OCCCC(=O)O)c1` (single isomer, unassigned) [Compound 8A] yielded an EC50 in the data set on DENV-2 16681 strain of 280 nM. For the same compound, the CC50 in “in vitro” came to 12000 nM.
In the data set with DENV-2 16681 strain (setting [1]), `COc1cc(NC(C(=O)N2CCc3cc(OC)c(C(F)(F)F)cc32)c2ccc(Cl)cc2OC)cc(OCCCC(=O)O)c1` (racemic) [Compound 7, 4-(3-((1-(4-chloro-2-methoxyphenyl)-2-(5-methoxy-6-(trifluoromethyl)indolin-1-yl)-2-oxoethyl)amino)-5-methoxyphenoxy)butanoic acid] came in with an EC50 of 0.47 nM. This compound also displayed a CC50 in the data set “in vitro” of 12000 nM.
Turning to `COc1cc(NC(C(=O)N2CCc3ccc(C(F)(F)F)cc32)c2ccc(F)cc2)cc(OCCCC(=O)O)c1` (single isomer, unassigned) [Compound 1A], a half-maximal response in the data set with DENV-2 16681 strain (EC50) required 180 nM. In addition, in the data set “in vitro”, the CC50 is more than 25000 nM.
Consider `COc1cc(NC(C(=O)N2CCc3ccc(C(F)(F)F)cc32)c2ccc(Cl)cc2OC)cc(OCCCC(=O)O)c1` (single isomer, unassigned) [Compound 6A], for which, in the data set on DENV-2 16681 strain, the EC50 was determined as 23 nM. Further, the CC50 in “in vitro” amounted to 12000 nM.
The compound `COc1cc(NC(C(=O)N2CCc3ccc(OC(F)(F)F)cc32)c2ccc(Cl)cc2)cc(OCCCC(=O)O)c1` (racemic) [Compound 4, 4-(3-((1-(4-chlorophenyl)-2-oxo-2-(6-(trifluoromethoxy)indolin-1-yl)ethyl)amino)-5-methoxyphenoxy)butanoic acid] displayed an EC50 in the data set with DENV-2 16681 strain (setting [1]) of 0.15 nM. In addition, in “in vitro”, the CC50 was determined as 10000 nM.
As to `COc1cc(NC(C(=O)N2CCc3ccc(OC(F)(F)F)cc32)c2ccc(Cl)cc2)cc(OCCCC(=O)O)c1` (single isomer, unassigned) [Compound 4A], the EC50 with DENV-2 16681 strain amounted to 31 nM. In the data set “in vitro”, this compound showed a CC50 of 10000 nM.
For `COc1cc(NC(C(=O)N2CCc3cc(OC)c(C(F)(F)F)cc32)c2ccc(Cl)cc2OC)cc(OCCCC(=O)O)c1` (single isomer, unassigned) [Compound 7A] the same measures were 24 nM and 12000 nM.
In the case of `COc1cc(NC(C(=O)N2CCc3ccc(C(F)(F)F)cc32)c2ccc(Cl)cc2F)cc(OCCCC(=O)O)c1` (racemic) [Compound 9, 4-(3-((1-(4-chloro-2-fluorophenyl)-2-oxo-2-(6-(trifluoromethyl)indolin-1-yl)ethyl)amino)-5-methoxy-phenoxy)butanoic acid], in the data set with DENV-2 16681 strain (setting [1]), the EC50 came to 0.96 nM. In addition, in the data set “in vitro”, the CC50 was determined as 11000 nM.
In the data set on DENV-2 16681 strain, `COc1cc(NC(C(=O)N2CCc3ccc(OC(F)(F)F)cc32)c2ccc(F)cc2)cc(OCCCC(=O)O)c1` (single isomer, unassigned) [Compound 2A] registered an EC50 of 56 nM. Also, in the data set “in vitro”, the CC50 came to 14000 nM.
For `COc1cc(NC(C(=O)N2CCc3cc(OC)c(C(F)(F)F)cc32)c2ccc(Cl)cc2)cc(OCCCC(=O)O)c1` (single isomer, unassigned) [Compound 5A] the same measures were 19 nM and 12000 nM.
For the compound `COc1cc(NC(C(=O)N2CCc3ccc(C(F)(F)F)cc32)c2ccc(F)cc2)cc(OCCCC(=O)O)c1` (racemic) [Compound 1, 4-(3-((1-(4-fluorophenyl)-2-oxo-2-(6-(trifluoromethyl)-indolin-1-yl)ethyl)amino)-5-methoxyphenoxy)butanoic acid], the midpoint of the response in the data set with DENV-2 16681 strain (setting [1]), the EC50, lay at 2.1 nM. For the same compound, the CC50 in “in vitro” was more than 25000 nM.
As to `COc1cc(NC(C(=O)N2CCc3cc(OC)c(OC(F)(F)F)cc32)c2ccc(Cl)cc2)cc(OCCCC(=O)O)c1` (racemic) [Compound 12, 4-(3-((1-(4-chlorophenyl)-2-(5-methoxy-6-(trifluoro-methoxy)indolin-1-yl)-2-oxoethyl)amino)-5-methoxyphenoxy)butanoic acid], in the data set on DENV-2 16681 strain (setting [1]), a half-maximal effect (EC50) was put at 0.73 nM. This compound also came in with a CC50 in “in vitro” of 12000 nM.
